# Source: US5858994A, “Carbohydrate conjugates as inhibitors of cell adhesion” (priority 1994, dated 1999)
# Like-named read-outs stand apart in the source and are kept apart here.
# How the values were obtained:
# E-Selectin = target: T1, E-Selectin (Homo sapiens, UniProt P16581); experiment: Inhibition of HL60 cell adhesion to soluble, recombinant E-selectin (E-selectin-IgG1 fusion protein); type: cell-based
# T1 sequence (P16581 22-556): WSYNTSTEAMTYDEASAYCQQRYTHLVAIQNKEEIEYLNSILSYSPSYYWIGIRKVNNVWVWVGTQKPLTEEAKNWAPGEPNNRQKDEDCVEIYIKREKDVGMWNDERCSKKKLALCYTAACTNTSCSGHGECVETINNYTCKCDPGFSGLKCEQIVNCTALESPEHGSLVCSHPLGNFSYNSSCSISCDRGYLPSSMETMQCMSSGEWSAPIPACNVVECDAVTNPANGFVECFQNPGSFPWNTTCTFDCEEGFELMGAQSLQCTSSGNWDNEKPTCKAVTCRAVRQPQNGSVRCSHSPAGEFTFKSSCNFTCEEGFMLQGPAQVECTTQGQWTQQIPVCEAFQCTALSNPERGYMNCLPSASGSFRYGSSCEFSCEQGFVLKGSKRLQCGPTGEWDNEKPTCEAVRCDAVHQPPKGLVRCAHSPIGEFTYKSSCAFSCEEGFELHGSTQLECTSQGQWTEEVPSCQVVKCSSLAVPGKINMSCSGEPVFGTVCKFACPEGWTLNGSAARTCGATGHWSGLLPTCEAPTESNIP
# From the text: (§1) Carrying out these assays to measure the inhibitory activity of the compounds according to the invention on cell adhesion of promyelocytic cells by means of selecting is described in detail in European Published Application EP 0 601 417.
# (§2) In order to test the efficacy of the carbohydrate conjugates on the interaction between the E- and P-selectins (former nomenclature ELAM-1 or GMP-140) with their ligands, an assay is used which in each case is specific only for one of these interactions. The ligands are supplied in their natural form as surface structures on promyelocytic HL60 cells. Since HL60 cells contain ligands and adhesion molecules of very different specificity, the desired specificity of the assay can only be produced by means of the binding component. The binding components used were genetically prepared soluble fusion proteins from the in each case extracytoplasmatic domains of E- or P-selectin and the constant region of a human immunoglobulin of the IgG1 subclass.
# Preparation of L-selectin-IgG1
# For the preparation of soluble L-selectin-IgG1 fusion protein, the genetic construct "ELAM-Rg" published by Walz et al., 1990 was used.
# For expression, the plasmid DNA was transfected in COS-7 cells (ATCC) by means of DEAE-dextran (Molecular Biology Methods: see Ausubel, F. M., Brent, R., Kingston, R. E., Moore, D. D., Seidman, J. G., Struhl, K. and Smith, J. A. 1990. Current Protocols in Molecular Biology, John Wiley, New York). Seven days after transfection, the culture supernatant is recovered, freed from cells and cell fragments by centrifugation and transferred to 25 mM HEPES pH 7.0, 0.3 mM PMSF, 0.02% sodium azide and stored at +4° C.
# (§3) 1. 96-well microtiter test plates (Nunc Maxisorb) are incubated at room temperature for 2 hours with 100 μl of a goat anti-human IgG antibody (Sigma) diluted (1+100) in 50 mM Tris pH 9.5. After removing the antibody solution washing is carried out once with PBS.
# (§4) 2. 150 μl of the blocking buffer are left in the wells at room temperature for 1 hour. The composition of the blocking buffer is: 0.1% gelatin, 1% BSA, 5% calf serum, 0.2 mM PMSF, 0.02% sodium azide. After removing the blocking buffer washing is carried out once with PBS.
# (§5) 3. 100 μl each of cell culture supernatant of appropriately transfected and expressing COS cells are pipetted into the wells. Incubation is carried out at room temperature for 2 hours. After removing the cell culture supernatant washing is carried out once with PBS.
# (§6) 4. 20 μl of binding buffer are added to the wells. The binding buffer has the composition: 50 mM HEPES, pH 7.5; 100 mM NaCl; 1 mg/ml BSA; 2 mM MgCl2; 1 mM CaCl2; 3 mM MnCl2; 0.02% sodium azide; 0.2 mM PMSF. 5 μl of the test substance are pipetted into this, mixed by swirling the plate and incubated at room temperature for 10 minutes.
# (§7) 5. 50 ml of an HL60 cell culture containing 200,000 cells/ml are centrifuged at 350 g for 4 minutes. The pellet is resuspended in 10 ml of RPMI 1640 and the cells are centrifuged again. For labeling the cells, 50 μg of BCECF-AM (Molecular Probes) are dissolved in 5 μl of anhydrous DMSO; 1.5 ml of RPMI 1640 are then added to the BCECF-AM/DMSO solution. The cells are resuspended using this solution and incubated at 37° C. for 30 minutes. After centrifugation at 350 g for 2 minutes, the labeled cell pellet is resuspended in 11 ml of binding buffer and the resuspended cells are distributed into the microtiter plate wells in 100 μl aliquots. The plate is allowed to stand at room temperature for 10 minutes in order to allow the cells to sediment on the bottom of the test plate. In the course of this, the cells have the opportunity to adhere to the coated plastic.
# (§8) 6. To stop the test, the microtiter plate is immersed completely in the stop buffer (25 mM tris, pH 7.5; 125 mM NaCl; 0.1% BSA; 2 mM MgCl2; 1 mM CaCl2; 3 mM MnCl2; 0.02% sodium azide) at an angle of 45°. The stop buffer is removed from the wells by inversion and the procedure is repeated a further two times.
# P-Selectin = target: T2, P-Selectin (Homo sapiens, UniProt P16109); experiment: Inhibition of HL60 cell adhesion to soluble, recombinant P-selectin (P-selectin-IgG1 fusion protein); type: cell-based
# T2 sequence (P16109 42-771): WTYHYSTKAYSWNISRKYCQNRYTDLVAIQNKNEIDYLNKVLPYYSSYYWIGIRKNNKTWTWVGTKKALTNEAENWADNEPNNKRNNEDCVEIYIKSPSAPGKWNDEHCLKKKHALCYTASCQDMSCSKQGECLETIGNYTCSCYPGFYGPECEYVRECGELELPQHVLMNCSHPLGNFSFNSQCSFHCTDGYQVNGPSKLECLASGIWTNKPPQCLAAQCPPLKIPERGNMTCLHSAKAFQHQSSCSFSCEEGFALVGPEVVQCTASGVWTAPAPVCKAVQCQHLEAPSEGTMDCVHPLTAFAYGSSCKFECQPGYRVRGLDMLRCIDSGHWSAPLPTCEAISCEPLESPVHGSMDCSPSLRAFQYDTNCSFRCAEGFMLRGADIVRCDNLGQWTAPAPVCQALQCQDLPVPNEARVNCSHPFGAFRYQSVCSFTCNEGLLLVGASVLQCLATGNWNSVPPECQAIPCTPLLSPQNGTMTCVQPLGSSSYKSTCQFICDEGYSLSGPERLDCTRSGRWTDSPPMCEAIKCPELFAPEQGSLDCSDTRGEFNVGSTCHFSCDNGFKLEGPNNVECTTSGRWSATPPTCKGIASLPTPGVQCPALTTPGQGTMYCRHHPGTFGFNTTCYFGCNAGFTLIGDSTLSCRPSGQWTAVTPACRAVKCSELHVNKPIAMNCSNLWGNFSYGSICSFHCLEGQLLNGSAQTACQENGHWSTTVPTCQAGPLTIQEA
# From the text: as §1, §2
# Preparation of P-selectin-IgG1
# For preparation of the soluble P-selectin-IgG1 fusion protein, the genetic construct "ICD62Rg" published by Aruffo et al., 1991 is used. The further procedure corresponds to the preparation of L-selectin-IgG1 presented under A1.
# as §3, §4, §5, §6, §7, §8
# 7. Measurement of the BCECF-AM-labeled cells firmly adhering to the wells is carried out in a cytofluorimeter (Millipore) at a sensitivity setting of 4, an excitation wavelength of 485/220 nm and an emission wavelength of 530/250 nm.
# [1] = inhibition of HL60 cell adhesion to soluble, recombinant adhesion molecules, read-out: IC50 E-Selectin
# [2] = inhibition of HL60 cell adhesion to soluble, recombinant adhesion molecules, read-out: IC50 P-Selectin
SMILES,IC50 (E-Selectin; [1]),IC50 (P-Selectin; [2]),IC50 (E-Selectin),IC50 (P-Selectin)
CC(=O)N[C@@H]1[C@@H](O[C@@H]2O[C@@H](C)[C@@H](O)[C@@H](O)[C@@H]2O)[C@H](O[C@@H]2O[C@H](CO)[C@H](O)[C@H](O[C@]3(C(=O)O)C[C@H](O)[C@@H](NC(C)=O)[C@H]([C@H](O)[C@H](O)CO)O3)[C@H]2O)[C@@H](CO)O[C@H]1NC(=O)[C@H](C)NC(=O)[C@H](CC(=O)O)NC(=O)CNC(=O)[C@@H](N)CCCNC(=N)N [Compound I-2],–,–,> 800 µM,10 µM
CC(=O)N[C@H]1[C@H](OCCCCCCNC(=O)[C@@H](N)CCC(=O)O)O[C@H](CO)[C@@H](O[C@@H]2O[C@H](CO)[C@H](O)[C@H](O[C@]3(C(=O)O)C[C@H](O)[C@@H](NC(C)=O)[C@H]([C@H](O)[C@H](O)CO)O3)[C@H]2O)[C@@H]1O[C@@H]1O[C@@H](C)[C@@H](O)[C@@H](O)[C@@H]1O [Compound I-6],1200 µM,–,–,–
CC(=O)N[C@H]1[C@H](OCCCCCCNC(=O)C2CCC(CN3C(=O)C=CC3=O)CC2)O[C@H](CO)[C@@H](O[C@@H]2O[C@H](CO)[C@H](O)[C@H](O[C@]3(C(=O)O)C[C@H](O)[C@@H](NC(C)=O)[C@H]([C@H](O)[C@H](O)CO)O3)[C@H]2O)[C@@H]1O[C@@H]1O[C@@H](C)[C@@H](O)[C@@H](O)[C@@H]1O (stereo partly shown) [Compound I-9],–,330 µM,–,–
CC(=O)N[C@H]1[C@H](OCCCCCCNC(=O)CCSSc2ccccn2)O[C@H](CO)[C@@H](O[C@@H]2O[C@H](CO)[C@H](O)[C@H](O[C@]3(C(=O)O)C[C@H](O)[C@@H](NC(C)=O)[C@H]([C@H](O)[C@H](O)CO)O3)[C@H]2O)[C@@H]1O[C@@H]1O[C@@H](C)[C@@H](O)[C@@H](O)[C@@H]1O [Compound I-10],390 µM,400 µM,–,–
CCCCCCCCCCCCCCCC(=O)N[C@@H](CSCC(COC(=O)CCCCCCCCCCCCCCC)OC(=O)CCCCCCCCCCCCCCC)C(=O)NCCCCCCO[C@@H]1O[C@H](CO)[C@@H](O[C@@H]2O[C@H](CO)[C@H](O)[C@H](O[C@]3(C(=O)O)C[C@H](O)[C@@H](NC(C)=O)[C@H]([C@H](O)[C@H](O)CO)O3)[C@H]2O)[C@H](O[C@@H]2O[C@@H](C)[C@@H](O)[C@@H](O)[C@@H]2O)[C@H]1NC(C)=O (stereo partly shown) [Compound I-13],20 µM,100 µM,–,–
"CC(=O)N[C@H]1[C@H](OCCCCCCN)O[C@H](CO)[C@@H](O[C@@H]2O[C@H](CO)[C@H](O)[C@H](O[C@]3(C(=O)O)C[C@H](O)[C@@H](NC(C)=O)[C@H]([C@H](O)[C@H](O)CO)O3)[C@H]2O)[C@@H]1O[C@@H]1O[C@@H](C)[C@@H](O)[C@@H](O)[C@@H]1O [III (n = 6), reference compound]",–,2000 µM,–,–

# The next lines start with results.
IC50 (E-Selectin; [1]),IC50 (P-Selectin; [2]),SMILES,IC50 (E-Selectin),IC50 (P-Selectin)
–,1500 µM,CC(=O)N[C@H]1[C@H](OCCCCCCNC(=O)CCC(=O)O)O[C@H](CO)[C@@H](O[C@@H]2O[C@H](CO)[C@H](O)[C@H](O[C@]3(C(=O)O)C[C@H](O)[C@@H](NC(C)=O)[C@H]([C@H](O)[C@H](O)CO)O3)[C@H]2O)[C@@H]1O[C@@H]1O[C@@H](C)[C@@H](O)[C@@H](O)[C@@H]1O [Compound I-7],–,–
–,600 µM,CC(=O)N[C@H]1[C@H](OCCCCCCNC(=O)CCCC[C@@H]2SC[C@@H]3NC(=O)N[C@@H]32)O[C@H](CO)[C@@H](O[C@@H]2O[C@H](CO)[C@H](O)[C@H](O[C@]3(C(=O)O)C[C@H](O)[C@@H](NC(C)=O)[C@H]([C@H](O)[C@H](O)CO)O3)[C@H]2O)[C@@H]1O[C@@H]1O[C@@H](C)[C@@H](O)[C@@H](O)[C@@H]1O [Compound I-11],–,–
> 800 µM,> 800 µM,CSCC[C@H](NC=O)C(=O)N[C@@H](CC(C)C)C(=O)N[C@@H](Cc1ccccc1)C(=O)NCCCCCCO[C@@H]1O[C@H](CO)[C@@H](O[C@@H]2O[C@H](CO)[C@H](O)[C@H](O[C@]3(C(=O)O)C[C@H](O)[C@@H](NC(C)=O)[C@H]([C@H](O)[C@H](O)CO)O3)[C@H]2O)[C@H](O[C@@H]2O[C@@H](C)[C@@H](O)[C@@H](O)[C@@H]2O)[C@H]1NC(C)=O [Compound I-12],–,–
